# Assay results published in PubChem BioAssay AID1053138 (Broad Institute, 2014).
# The source made the active and inactive calls. No rule for the calls is given here.
# Key:
# [1] = activators of Trib1 transcript expression – cell-based, qPCR, dose response (AID 1053138); details: HepG2 Trib1 mRNA qPCR, 24 h; measured here: Trib1 mRNA max fold induction; stronger effect = higher value
# [2] = system: HepG2 Trib1 mRNA qPCR, 24 h; experiment: as above
SMILES,fold change [1],AC50 [2]
CN1C(=O)c2cc(NC(=O)c3ccc(C(F)(F)F)cc3)ccc2OC[C@@H]2O[C@@H](CC(=O)NC3Cc4ccccc4C3)CC[C@@H]21,2.7,1.7 µM
CN1C(=O)c2cc(NC(=O)c3ccc(C(F)(F)F)cc3)ccc2OC[C@@H]2O[C@H](CC(=O)NC3Cc4ccccc4C3)CC[C@@H]21,3.7,0.31 µM
CN1C(=O)c2cc(NC(=O)c3ccc(C(F)(F)F)cc3)ccc2OC[C@@H]2O[C@H](CC(=O)NC3Cc4ccccc4C3)CC[C@H]21,1.3,> 25 µM (inactive)
